The values below come from patent publication US20070276011A1, “Plasminogen Activator Inhibitor-1 Inhibitor” (priority 2003, published 2007).

Sequence of recombinant human PAI-1 (P05121 24-402): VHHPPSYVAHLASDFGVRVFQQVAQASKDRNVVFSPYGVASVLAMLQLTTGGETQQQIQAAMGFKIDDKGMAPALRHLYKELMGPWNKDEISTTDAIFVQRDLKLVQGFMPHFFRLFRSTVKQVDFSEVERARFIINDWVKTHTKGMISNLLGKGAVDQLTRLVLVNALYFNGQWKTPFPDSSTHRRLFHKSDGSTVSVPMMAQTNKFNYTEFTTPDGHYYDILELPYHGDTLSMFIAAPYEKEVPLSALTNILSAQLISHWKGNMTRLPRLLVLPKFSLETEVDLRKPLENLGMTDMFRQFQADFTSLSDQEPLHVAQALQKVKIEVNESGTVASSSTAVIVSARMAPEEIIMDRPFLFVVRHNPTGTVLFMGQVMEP

One assay has as its target recombinant human PAI-1 (Homo sapiens, UniProt P05121). In words: PAI-1 inhibitory activity, Test Method A (tPA fluorogenic substrate, Tris buffer pH8.0, 37 C). The settings on record: 25 μM test compound; Test Method A. It counts as biochemical.
`CC1=NN(c2cc(Cl)cc(Cl)c2)C(=O)C1=Cc1cc(O)c(O)cc1O` [compound 501]: the “Inhibitory Ratio at 25 μM (%)” value is listed as greater than 99%.

With `CC(C)C1=NN(c2cc(Cl)ccc2Cl)C(=O)C1=Cc1cc(O)c(O)cc1O` [compound 502, 4-(2,4,5-Trihydroxybenzylidene)-1-(2,5-dichlorophenyl)-3-isopropyl-2-pyrazolin-5-one], the “Inhibitory Ratio at 25 μM (%)” value worked out at 66%.

For `CC(C)C1=NN(c2cc(Cl)cc(Cl)c2)C(=O)C1=Cc1ccc(O)cc1O` [compound 505], the “Inhibitory Ratio at 25 μM (%)” value was determined as 93%.

Take `COc1cc(OC)c(OC)cc1C=C1C(=O)N(c2cc(Cl)cc(Cl)c2)N=C1C(C)C` [compound 506]: the “Inhibitory Ratio at 25 μM (%)” value was 50%.

As to `CC(C)C1=NN(c2cc(Cl)cc(Cl)c2)C(=O)C1=Cc1c[nH]cn1` [compound 508], the “Inhibitory Ratio at 25 μM (%)” value was found to be 26%.

For the molecule `O=C1C(=Cc2cccc(O)c2)C(c2ccc(O)cc2)=NN1c1cc(Cl)cc(Cl)c1` [compound 509, 4-(3-Hydroxybenzylidene)-1-(3,5-dichlorophenyl)-3-(4-hydroxyphenyl)-2-pyrazolin-5-one], the “Inhibitory Ratio at 25 μM (%)” value is given as greater than 99%.

As to `O=C1C(=Cc2cc(Br)ccc2O)C(c2ccc(O)cc2)=NN1c1cc(Cl)cc(Cl)c1` [compound 510], the “Inhibitory Ratio at 25 μM (%)” value came out at 86%.

Consider `O=C1C(=Cc2ccc(O)cc2)C(c2ccc(O)cc2)=NN1c1cc(Cl)cc(Cl)c1` [compound 511], for which the “Inhibitory Ratio at 25 μM (%)” value is greater than 99%.

For the molecule `CCOC(=O)CCC1=NN(c2ccccc2)C(=O)C1=Cc1ccc2c(c1)OCO2` [compound 512, 4-(3,4-Methylenedioxybenzylidene)-1-phenyl-3-[2-(ethoxycarbonyl)ethyl]-2-pyrazolin-5-one], the “Inhibitory Ratio at 25 μM (%)” value turned out to be 52%.

As for `CCOC1=NN(c2ccc([N+](=O)[O-])cc2)C(=O)C1=Cc1cc(Br)ccc1O` [compound 513], the “Inhibitory Ratio at 25 μM (%)” value is given as 72%.

`CCOC(=O)CCC1=NN(c2ccccc2)C(=O)C1=Cc1cc(O)c(O)cc1O` [compound 514]: the “Inhibitory Ratio at 25 μM (%)” value is listed as 56%.

As for `CCOC(=O)CCCC1=NN(c2ccc(Cl)cc2)C(=O)C1=Cc1cc(Br)ccc1O` [compound 516, 4-(2-Hydroxy-5-bromobenzylidene)-1-(4-chlorophenyl)-3-[3-(ethoxycarbonyl)propyl]-2-pyrazolin-5-one], the “Inhibitory Ratio at 25 μM (%)” value came to 86%.

Turning to `COc1ccc(O)c(C=C2C(=O)N(c3ccc(Cl)c(Cl)c3)N=C2C(C)C)c1` [compound 518, 4-(2-hydroxy-5-methoxybenzylidene)-1-(3,4-dichlorophenyl)-3-isopropyl-2-pyrazolin-5-one], the “Inhibitory Ratio at 25 μM (%)” value was 83%.

Consider `CC(C)C1=NN(c2ccc(Cl)c(Cl)c2)C(=O)C1=Cc1cc(O)ccc1O` [compound 519], for which the “Inhibitory Ratio at 25 μM (%)” value is 80%.

Turning to `O=C1C(=Cc2cc(Br)ccc2O)C(c2ccc(O)cc2)=NN1c1ccc(Cl)cc1` [compound 520, 4-(2-Hydroxy-5-bromobenzylidene)-1-(4-chlorophenyl)-3-(4-hydroxyphenyl)-2-pyrazolin-5-one], the “Inhibitory Ratio at 25 μM (%)” value is on record as greater than 99%.

Take `COCC1=NN(c2cc(Cl)cc(Cl)c2)C(=O)C1=Cc1cc(Br)ccc1O` [compound 521, 4-(2-Hydroxy-5-bromobenzylidene)-1-(3,5-dichlorophenyl)-3-methoxymethyl-2-pyrazolin-5-one]: the “Inhibitory Ratio at 25 μM (%)” value is greater than 99%.

In the case of `COCC1=NN(c2cc(Cl)cc(Cl)c2)C(=O)C1=Cc1cc(O)c(O)cc1O` [compound 522], the “Inhibitory Ratio at 25 μM (%)” value is on record as greater than 99%.

As for `COCC1=NN(c2cc(Cl)cc(Cl)c2)C(=O)C1=Cc1ccccc1O` [compound 523], the “Inhibitory Ratio at 25 μM (%)” value is reported as greater than 99%.

Take `COCC1=NN(c2cc(Cl)cc(Cl)c2)C(=O)C1=Cc1cc(C=Cc2ccccc2)ccc1O` [compound 524]: the “Inhibitory Ratio at 25 μM (%)” value was greater than 99%.

In the case of `CC(C)C1=NN(c2cc(Cl)cc(Cl)c2)C(=O)C1=Cc1cc(C=Cc2ccccc2)ccc1O` [compound 525], the “Inhibitory Ratio at 25 μM (%)” value is greater than 99%.

Take `CC(C)C1=NN(c2cc(Cl)cc(Cl)c2)C(=O)C1=Cc1cc(Br)ccc1O` [compound 526]: the “Inhibitory Ratio at 25 μM (%)” value is recorded as greater than 99%.

As to `COCC1=NN(c2cc(Cl)cc(Cl)c2)C(=O)C1=Cc1ccc(Oc2ccccc2)cc1` [compound 527], the “Inhibitory Ratio at 25 μM (%)” value turned out to be 59%.

With `COc1cc(Br)cc(C=C2C(=O)N(c3cc(Cl)cc(Cl)c3)N=C2C(C)C)c1O` [compound 528], the “Inhibitory Ratio at 25 μM (%)” value is greater than 99%.

`CC(C)C1=NN(c2cc(Cl)cc(Cl)c2)C(=O)C1=Cc1cc(Br)cc(O)c1O` [compound 529]: the “Inhibitory Ratio at 25 μM (%)” value is reported as greater than 99%.

Take `O=C1C(=Cc2cc(C=Cc3ccccc3)ccc2O)C(c2ccc(O)cc2)=NN1c1ccc(Cl)cc1` [compound 530]: the “Inhibitory Ratio at 25 μM (%)” value is given as greater than 99%.

Regarding `CC(C)C1=NN(c2ccc([N+](=O)[O-])cc2)C(=O)C1=Cc1cc(C=Cc2ccccc2)ccc1O` [compound 531, 4-(21-Hydroxy-5-styrylbenzylidene)-1-(4-nitrophenyl)-3-isopropyl-2-pyrazolin-5-one], the “Inhibitory Ratio at 25 μM (%)” value is reported as 50%.

With `COc1ccc(C=Cc2ccccc2)cc1C=C1C(=O)N(c2ccc([N+](=O)[O-])cc2)N=C1C(C)C` [compound 532, 4-(2-Methoxy-5-styrylbenzylidene)-1-(4-nitrophenyl)-3-isopropyl-2-pyrazolin-5-one], the “Inhibitory Ratio at 25 μM (%)” value is 78%.

For the molecule `CC1=NN(c2ccc([N+](=O)[O-])cc2)C(=O)C1=Cc1cc(C=Cc2ccccc2)ccc1O` [compound 533], the “Inhibitory Ratio at 25 μM (%)” value is recorded as greater than 99%.

With `CC(C)C1=NN(c2ccc(C(=O)O)cc2)C(=O)C1=Cc1cc(C=Cc2ccccc2)ccc1O` [compound 534], the “Inhibitory Ratio at 25 μM (%)” value came out at 64%.

For `COc1ccc(C=Cc2ccccc2)cc1C=C1C(=O)N(c2ccc(C(=O)O)cc2)N=C1C(C)C` [compound 535], the “Inhibitory Ratio at 25 μM (%)” value turned out to be 75%.

Consider `CC(C)C1=NN(c2ccc(C(=O)O)cc2)C(=O)C1=Cc1ccc(C=Cc2ccccc2)cc1` [compound 536], for which the “Inhibitory Ratio at 25 μM (%)” value is recorded as greater than 99%.

In the case of `CCOC1=NN(c2ccc([N+](=O)[O-])cc2)C(=O)C1=Cc1cc(C=Cc2ccccc2)ccc1OC` [compound 537], the “Inhibitory Ratio at 25 μM (%)” value was 66%.

As to `COCC1=NN(c2ccc([N+](=O)[O-])cc2)C(=O)C1=Cc1cc(C=Cc2ccccc2)ccc1O` [compound 538, 4-(2-Hydroxy-5-styrylbenzylidene)-1-(4-nitrophenyl)-3-methoxymethyl-2-pyrazolin-5-one], the “Inhibitory Ratio at 25 μM (%)” value is listed as greater than 99%.

On to `COc1cc(C=C2C(=O)N(c3cc(Cl)cc(Cl)c3)N=C2C(C)C)cc(Br)c1O` [compound 539, 4-(3-Methoxy-4-hydroxy-5-bromobenzylidene)-1-(3,5-dichlorophenyl)-3-isopropyl-2-pyrazolin-5-one], for which the “Inhibitory Ratio at 25 μM (%)” value was 80%.

With `CC(C)C1=NN(c2cc(Cl)cc(Cl)c2)C(=O)C1=Cc1cc(O)c(O)c(Br)c1` [compound 540], the “Inhibitory Ratio at 25 μM (%)” value is reported as greater than 99%.

As for `CCOC1=NN(c2ccc([N+](=O)[O-])cc2)C(=O)C1=Cc1cc(C=Cc2ccccc2)ccc1O` [compound 541, 4-(2-hydroxy-5-styrylbenzylidene)-1-(4-nitrophenyl)-3-ethoxy-2-pyrazolin-5-one], the “Inhibitory Ratio at 25 μM (%)” value was greater than 99%.

For the molecule `CCOC1=NN(c2ccc([N+](=O)[O-])cc2)C(=O)C1=Cc1cc(C=Cc2ccccc2)ccc1O[Si](C)(C)C(C)(C)C` [compound 543], the “Inhibitory Ratio at 25 μM (%)” value is greater than 99%.

For the molecule `CC(C)C1=NN(c2ccc(C=Cc3ccccn3)cc2)C(=O)C1=Cc1cc(C=Cc2ccccc2)ccc1O` [compound 544, 4-(2-Hydroxy-5-styrylbenzylidene)-1-{4-[2-(pyridin-2-yl)vinyl]phenyl}-3-isopropyl-2-pyrazolin-5-one], the “Inhibitory Ratio at 25 μM (%)” value was 41%.

On to `CC(C)C1=NN(c2ccc(C=Cc3ccccn3)cc2)C(=O)C1=Cc1cc(O)c(O)cc1O` [compound 545], for which the “Inhibitory Ratio at 25 μM (%)” value came to 74%.

Take `CCOC1=NN(c2ccc([N+](=O)[O-])cc2)C(=O)C1=Cc1c(O)ccc2ccccc12` [compound 546]: the “Inhibitory Ratio at 25 μM (%)” value is on record as 96%.

Turning to `CCOC1=NN(c2ccc([N+](=O)[O-])cc2)C(=O)C1=Cc1c2ccccc2cc2ccccc12` [compound 547], the “Inhibitory Ratio at 25 μM (%)” value is on record as 62%.

Take `CCOC1=NN(c2ccc([N+](=O)[O-])cc2)C(=O)C1=Cc1cc(C(C)(C)C)ccc1O` [compound 548]: the “Inhibitory Ratio at 25 μM (%)” value is recorded as 32%.

As for `CCOC1=NN(c2ccc([N+](=O)[O-])cc2)C(=O)C1=Cc1c(O)cccc1OC` [compound 550, 4-(2-hydroxy-6-methoxybenzylidene)-1-(4-nitrophenyl)-3-ethoxy-2-pyrazolin-5-one], the “Inhibitory Ratio at 25 μM (%)” value is 66%.

Take `CCOC1=NN(c2ccc([N+](=O)[O-])cc2)C(=O)C1=Cc1c(Br)ccc(O)c1O` [compound 551]: the “Inhibitory Ratio at 25 μM (%)” value was 75%.

`CCOC1=NN(c2ccc([N+](=O)[O-])cc2)C(=O)C1=Cc1c(O)cccc1O` [compound 552]: the “Inhibitory Ratio at 25 μM (%)” value turned out to be 95%.

Turning to `CC(C)C1=NN(Cc2ccc(Cl)c(Cl)c2)C(=O)C1=Cc1cc(O)c(O)cc1O.N=C(N)NCCC[C@H](N)C(=O)O.N=C(N)NCCC[C@H](N)C(=O)O.N=C(N)NCCC[C@H](N)C(=O)O` [compound 553, tri(L-(+)-arginine) salt of 4-(2,4,5-trihydroxybenzylidene)-1-(3,4-dichlorobenzyl)-3-isopropyl-2-pyrazolin-5-one], the “Inhibitory Ratio at 25 μM (%)” value is listed as greater than 99%.

For `CC(C)C1=NN(Cc2ccc(Cl)c(Cl)c2)C(=O)C1=Cc1cc(O)c(O)cc1O.N=C(N)NCCC[C@H](N)C(=O)O.N=C(N)NCCC[C@H](N)C(=O)O` [compound 554, di(L-(+)-arginine) salt of 4-(2,4,5-trihydroxybenzylidene)-1-(3,4-dichlorobenzyl)-3-isopropyl-2-pyrazolin-5-one], the “Inhibitory Ratio at 25 μM (%)” value was greater than 99%.

Turning to `CC(C)C1=NN(c2cc(Cl)cc(Cl)c2)C(=O)C1=Cc1cc(O)c(O)cc1Br` [compound 556, 4-(2-Bromo-4,5-dihydroxybenzylidene)-1-(3,5-dichlorophenyl)-3-isopropyl-2-pyrazolin-5-one], the “Inhibitory Ratio at 25 μM (%)” value was greater than 99%.

Staying with this assay, now noted: 50% inhibitory concentration of PAI-1 activity, according to the aforementioned method.
As usually defined, the IC50 is the concentration needed to halve the response being measured. On to `CC1=NN(c2cc(Cl)cc(Cl)c2)C(=O)C1=Cc1cc(O)c(O)cc1O` [compound 501], for which the IC50 was determined as 810 nM.
